This note sets out measurements from patent US9958434B2, “Fluorescent probe sensing tyrosine kinase and use thereof” (POSTECH ACADEMY-INDUSTRY FOUNDATION, priority 2013, dated 2018).

The series deals with mouse cutaneous melanoma cells (B16F10). Nature of the series: Cytotoxicity, cell counting kit-8 (CCK-8). The conditions noted are these: B16F10, 0 to 200 μM, incubated for an hour. The format is cell-based. The procedure:
The present inventors confirmed the cytotoxicity of compound 1 in mouse cutaneous melanoma cells (B16F10) using a cell counting kit-8 (CCK-8) method (Dojindo laboratories, Kumamoto, Japan).
More particularly, the B16F10 cells were incubated for 24 hours (at 37° C.) at a density of 5000 cells/well in a 96-well plate under a 5% CO2 atmosphere. The cells were treated with an increasing concentration of compound 1 (10 μM, 30 μM, 50 μM, 100 μM, and 200 μM) in a DMSO solvent, and then incubated for an hour. Thereafter, the cells were treated with 10 μL of a CCK-8 solution, and then incubated for 2 hours.

In the case of `CN(C)c1ccc2cc(C=O)c(O)cc2c1` [compound 1, 6-(dimethylamino)-3-hydroxyl-2-naphthaldehyde], the cell viability entry is “more than 90%”.
